Here are results for 13 molecules from patent US6465492B1, “Heterocyclic compounds” (Sinon Corporation, priority 2001, dated 2002).

The assay has as its system aphids. The assay is described as follows: Biological test on aphid (spray on cabbage leaf in Petri dishes). The format is in vivo. Conditions: for Number of dead aphids 1st: 1st Petri dish; for Number of dead aphids 1st / Number of dead aphids 2nd / Number of dead aphids 3rd / Number of dead aphids 4th: 20 aphids on cabbage leaf, 9.6% w/w pesticide reagent diluted 1000 times with water, sprayed, examined after 24 hours; for Number of dead aphids 2nd: 2nd Petri dish; for Number of dead aphids 3rd: 3rd Petri dish; for Number of dead aphids 4th: 4th Petri dish; for Number of dead aphids average: average of four Petri dishes. The protocol:
9.6 g of the compound (based on the active ingredient) obtained from Example 1 was blended with 90.4 g of a solvent to form a 9.6% w/w pesticide reagent An 8 cm×8 cm piece of cabbage leaf was placed on a lump of wetted cotton in each one of four Petri dishes. 20 aphids were subsequently put on the cabbage leaf in each one of the Petri dishes. The thus formed pesticide reagent was diluted 1000 times with water to form a diluted solution which was then sprayed onto the cabbage leaf in each one of the Petri dishes in a predetermined amount. The number of dead aphids in each one of the Petri dishes was examined after 24 hours.
Example 13 was repeated, except that the compound employed in Example 13 was replaced by the compound obtained from a respective one of the Examples 2 to 12.
Example 13 was repeated, except that the compound employed in Example 13 was replaced by imidachloprid which is a heterocyclic compound of the formula disclosed in U.S. Pat. No. 4,742,060.
Table 2 lists the effectiveness of the pesticide reagents prepared in Examples 13 to 24 and the Comparative Example 1.

Where [1] appears, read: 20 aphids each, 9.6% w/w reagent diluted 1000 times, after 24 hours.

For `CS(=O)(=O)/N=C1\NCCN1Cc1ccc(Cl)nc1` [Example 15, 3-(2-chloro-5-pyridylmethyl)-2-[methylsulfonylimino] imidazolidine], the “Number of dead aphids 1st” value was determined as 16, the “Number of dead aphids 2nd” value is 18, the “Number of dead aphids 3rd” value came to 19 and the “Number of dead aphids 4th” value worked out at 19. Besides, the “Number of dead aphids average” value under setting [1] is 18.
For the molecule `O=[N+]([O-])/N=C1\NCCN1Cc1ccc(Cl)nc1` [Comparative Example 1, imidachloprid, reference compound], the “Number of dead aphids 1st” value stood at 18, the “Number of dead aphids 2nd” value is reported as 17, the “Number of dead aphids 3rd” value is given as 18 and the “Number of dead aphids 4th” value was found to be 16. The “Number of dead aphids average” value under setting [1] stood at 17.25. The Effectiveness (higher value indicates greater effectivity, four Petri dishes, 20 aphids each, 9.6% w/w reagent diluted 1000 times, after 24 hours) was 86.08.
For `Cc1ccc(S(=O)(=O)N=C2OCCN2Cc2ccc(Cl)nc2)cc1` [Example 20, 3-(2-chloro-5-pyridylmethyl)-2-[(4-methylphenyl)sulfonylimino]oxazolidine], the “Number of dead aphids 1st” value is 17, the “Number of dead aphids 2nd” value stood at 16, the “Number of dead aphids 3rd” value amounted to 18 and the “Number of dead aphids 4th” value turned out to be 15. In addition, under setting [1], the “Number of dead aphids average” value came out at 16.5.
The corresponding values for `O=S(=O)(N=C1NCCN1Cc1ccc(Cl)nc1)c1ccc(Cl)cc1` [Example 17, 3-(2-chloro-5-pyridylmethyl)-2-[(4-chlorophenyl)sulfonylimino]imidazolidine] are 20, 18, 19, 20 and 19.25.
The corresponding values for `Cc1ccc(S(=O)(=O)N=C2SCCN2Cc2ccc(Cl)nc2)cc1` [Example 19, 3-(2-chloro-5-pyridylmethyl)-2-[(4-methylphenyl)sulfonylimino]thiazolidine] are 17, 16, 18, 17 and 17.
Taken in the same sequence, the figures for `CS(=O)(=O)N=C1NCCCN1Cc1ccc(Cl)nc1` [Example 16, 3-(2-chloro-5-pyridylmethyl)-2-[methylsulfonylimino]tetrahydropyrimidine] were 17, 17, 19, 19 and 18.
As to `CS(=O)(=O)/N=C1\SCCN1Cc1ccc(Cl)nc1` [Example 21, 3-(2-chloro-5-pyridylmethyl)-2-[methylsulfonylimino]thiazolidine], the “Number of dead aphids 1st” value stood at 16, the “Number of dead aphids 2nd” value came to 18, the “Number of dead aphids 3rd” value is listed as 19 and the “Number of dead aphids 4th” value was 18. The “Number of dead aphids average” value under setting [1] was 17.75.
`Cc1ccc(S(=O)(=O)N=C2NCCCN2Cc2ccc(Cl)nc2)cc1` [Example 14, 3-(2-chloro-5-pyridylmethyl)-2-[(4-methylphenyl)sulfonylimino]tetrahydropyrimidine]: the “Number of dead aphids 1st” value is listed as 16, the “Number of dead aphids 2nd” value is 17, the “Number of dead aphids 3rd” value was determined as 17 and the “Number of dead aphids 4th” value came out at 16. The “Number of dead aphids average” value under setting [1] was 16.5.
Consider `O=S(=O)(N=C1NCCCN1Cc1ccc(Cl)nc1)c1ccc(Cl)cc1` [Example 18, 3-(2-chloro-5-pyridylmethyl)-2-[(4-chlorophenyl)sulfonylimino]tetrahydropyrimidine], for which the “Number of dead aphids 1st” value worked out at 19, the “Number of dead aphids 2nd” value was 19, the “Number of dead aphids 3rd” value amounted to 19 and the “Number of dead aphids 4th” value was 17. Also, under setting [1], the “Number of dead aphids average” value stood at 18.5.
`Cc1ccc(S(=O)(=O)N=C2NCCN2Cc2ccc(Cl)nc2)cc1` [Example 13, 3-(2-chloro-5-pyridylmethyl)-2-[(4-methylphenyl)sulfonylimino]imidazolidine]: the “Number of dead aphids 1st” value is on record as 15, the “Number of dead aphids 2nd” value was found to be 18, the “Number of dead aphids 3rd” value is listed as 16 and the “Number of dead aphids 4th” value was 17. Further, the “Number of dead aphids average” value under setting [1] came to 16.5.
Take `CS(=O)(=O)/N=C1\OCCN1Cc1ccc(Cl)nc1` [Example 22, 3-(2-chloro-5-pyridylmethyl)-2-[methylsulfonylimino]oxazolidine]: the “Number of dead aphids 1st” value stood at 18, the “Number of dead aphids 2nd” value was 16, the “Number of dead aphids 3rd” value stood at 19 and the “Number of dead aphids 4th” value came to 17. Under setting [1], the “Number of dead aphids average” value came out at 17.5.
Turning to `O=S(=O)(N=C1SCCN1Cc1ccc(Cl)nc1)c1ccc(Cl)cc1` [Example 23, 3-(2-chloro-5-pyridylmethyl)-2-[(4-chlorophenyl)sulfonylimino]thiazolidine], the “Number of dead aphids 1st” value worked out at 18, the “Number of dead aphids 2nd” value was found to be 18, the “Number of dead aphids 3rd” value was 16 and the “Number of dead aphids 4th” value is listed as 18. Besides, the “Number of dead aphids average” value under setting [1] stood at 17.5.
On to `O=S(=O)(N=C1OCCN1Cc1ccc(Cl)nc1)c1ccc(Cl)cc1` [Example 24, 3-(2-chloro-5-pyridylmethyl)-2-[(4-chlorophenyl)sulfonylimino]oxazolidine], for which the “Number of dead aphids 1st” value came to 15, the “Number of dead aphids 2nd” value came to 18, the “Number of dead aphids 3rd” value was 19 and the “Number of dead aphids 4th” value is 19. The “Number of dead aphids average” value under setting [1] was found to be 17.75.
